Experimental data: the OligoGym collection
HELM strings list units from the 5' end as sugar, base in round brackets, then linkage (d deoxyribose, r ribose, m 2'-O-methyl, p phosphodiester). Strings are as the collection lists them; they lack the last nucleoside at the 3' end of the tested compound. [moe] = 2'-O-(2-methoxyethyl) (MOE); [sp] = phosphorothioate linkage; [m5C] = 5-methylcytosine

Molecular target: FUS
Test: mouse, dose not given
Settings: ASO

Row | Substance | 3 h FOB score
1 | RNA1{[moe](G)[sp].[moe]([m5C])p.[moe](A)p.[moe](A)p.[moe](T)p.d(G)[sp].d(T)[sp].d([m5C])[sp].d(A)[sp].d([m5C])[sp].d([m5C])[sp].d(T)[sp].d(T)[sp].d(T)[sp].d([m5C])[sp].[moe](A)p.[moe](T)p.[moe](A)[sp].[moe]([m5C])}$$$$ (last 3' nucleoside missing) | 0 score 0-7
2 | RNA1{[moe]([m5C])[sp].[moe]([m5C])[sp].[moe](T)[sp].[moe](G)[sp].[moe](G)[sp].d(T)[sp].d(T)[sp].d(A)[sp].d(T)[sp].d(T)[sp].d(T)[sp].d([m5C])[sp].d([m5C])[sp].d([m5C])[sp].d(A)[sp].[moe](T)[sp].[moe](G)[sp].[moe](A)[sp].[moe](G)}$$$$ (last 3' nucleoside missing) | 6 score 0-7
3 | RNA1{[moe](A)[sp].[moe](G)p.[moe](T)p.[moe]([m5C])p.[moe](A)p.d(G)[sp].d(G)[sp].d(T)[sp].d(T)[sp].d(A)[sp].d(A)[sp].d([m5C])[sp].d([m5C])[sp].d(A)[sp].d(T)[sp].[moe](T)p.[moe](A)p.[moe]([m5C])[sp].[moe]([m5C])}$$$$ (last 3' nucleoside missing) | 1 score 0-7
4 | RNA1{[moe](G)[sp].[moe](T)p.[moe](T)p.[moe](A)p.[moe]([m5C])p.d(A)[sp].d(A)[sp].d(T)[sp].d(T)[sp].d(A)[sp].d([m5C])[sp].d(A)[sp].d(T)[sp].d(A)[sp].d(G)[sp].[moe](T)p.[moe]([m5C])p.[moe]([m5C])[sp].[moe](G)}$$$$ (last 3' nucleoside missing) | 4.5 score 0-7
5 | RNA1{[moe](G)[sp].[moe]([m5C])p.[moe](A)p.[moe](A)p.[moe](A)p.d(G)[sp].d(A)[sp].d(T)[sp].d(A)[sp].d(G)[sp].d(T)[sp].d(T)[sp].d(A)[sp].d([m5C])[sp].d([m5C])[sp].[moe]([m5C])p.[moe](T)p.[moe]([m5C])[sp].[moe]([m5C])}$$$$ (last 3' nucleoside missing) | 1 score 0-7
6 | RNA1{[moe](T)[sp].[moe](T)p.[moe](A)p.[moe]([m5C])p.[moe](A)p.d(A)[sp].d(T)[sp].d(T)[sp].d(A)[sp].d([m5C])[sp].d(A)[sp].d(T)[sp].d(A)[sp].d(G)[sp].d(T)[sp].[moe]([m5C])p.[moe]([m5C])p.[moe](G)[sp].[moe](A)}$$$$ (last 3' nucleoside missing) | 2 score 0-7
7 | RNA1{[moe](A)[sp].[moe](T)p.[moe]([m5C])p.[moe](A)p.[moe](T)p.d([m5C])[sp].d(G)[sp].d(G)[sp].d(T)[sp].d(T)[sp].d(T)[sp].d([m5C])[sp].d([m5C])[sp].d([m5C])[sp].d(T)[sp].[moe](T)p.[moe](G)p.[moe]([m5C])[sp].[moe](A)}$$$$ (last 3' nucleoside missing) | 5.5 score 0-7
8 | RNA1{[moe](A)[sp].[moe](G)p.[moe](T)p.[moe](T)p.[moe](A)p.d([m5C])[sp].d(A)[sp].d(A)[sp].d(T)[sp].d(T)[sp].d(A)[sp].d([m5C])[sp].d(A)[sp].d(T)[sp].d(A)[sp].[moe](G)p.[moe](T)p.[moe]([m5C])[sp].[moe]([m5C])}$$$$ (last 3' nucleoside missing) | 4 score 0-7
9 | RNA1{[moe](T)[sp].[moe]([m5C])p.[moe](A)p.[moe](T)p.[moe]([m5C])p.d(G)[sp].d(G)[sp].d(T)[sp].d(T)[sp].d(T)[sp].d([m5C])[sp].d([m5C])[sp].d([m5C])[sp].d(T)[sp].d(T)[sp].[moe](G)p.[moe]([m5C])p.[moe](A)[sp].[moe](G)}$$$$ (last 3' nucleoside missing) | 2.25 score 0-7
10 | RNA1{[moe](G)[sp].[moe](T)p.[moe](A)p.[moe](G)p.[moe](G)p.d(G)[sp].d(T)[sp].d([m5C])[sp].d([m5C])[sp].d(T)[sp].d(T)[sp].d([m5C])[sp].d(A)[sp].d(A)[sp].d(A)[sp].[moe](T)p.[moe]([m5C])p.[moe](T)[sp].[moe](T)}$$$$ (last 3' nucleoside missing) | 1 score 0-7
11 | RNA1{[moe](A)[sp].[moe]([m5C])p.[moe]([m5C])p.[moe](A)p.[moe](T)p.d([m5C])[sp].d([m5C])[sp].d(T)[sp].d(T)[sp].d(A)[sp].d(A)[sp].d(A)[sp].d(A)[sp].d([m5C])[sp].d([m5C])[sp].[moe](G)p.[moe](T)p.[moe](G)[sp].[moe](T)}$$$$ (last 3' nucleoside missing) | 1 score 0-7
12 | RNA1{[moe](A)[sp].[moe](G)p.[moe](G)p.[moe]([m5C])p.[moe](A)p.d(A)[sp].d([m5C])[sp].d(T)[sp].d(T)[sp].d([m5C])[sp].d([m5C])[sp].d([m5C])[sp].d([m5C])[sp].d(T)[sp].d(T)[sp].[moe](A)p.[moe](A)p.[moe](A)[sp].[moe](G)}$$$$ (last 3' nucleoside missing) | 1 score 0-7
13 | RNA1{[moe](G)[sp].[moe](G)p.[moe](T)p.[moe](T)p.[moe](G)p.d(A)[sp].d([m5C])[sp].d(A)[sp].d(A)[sp].d([m5C])[sp].d([m5C])[sp].d(A)[sp].d(A)[sp].d(G)[sp].d(T)[sp].[moe](A)p.[moe](G)p.[moe](T)[sp].[moe](T)}$$$$ (last 3' nucleoside missing) | 5 score 0-7
14 | RNA1{[moe](T)[sp].[moe]([m5C])p.[moe]([m5C])p.[moe](A)p.[moe]([m5C])p.d(G)[sp].d(A)[sp].d(A)[sp].d(T)[sp].d(T)[sp].d([m5C])[sp].d(A)[sp].d(G)[sp].d(T)[sp].d(T)[sp].[moe](T)p.[moe](G)p.[moe](T)[sp].[moe](G)}$$$$ (last 3' nucleoside missing) | 4 score 0-7
15 | RNA1{[moe](A)[sp].[moe](G)p.[moe](G)p.[moe](T)p.[moe](T)p.d(A)[sp].d([m5C])[sp].d(A)[sp].d(A)[sp].d(A)[sp].d(A)[sp].d(T)[sp].d(A)[sp].d(A)[sp].d([m5C])[sp].[moe](G)p.[moe](A)p.[moe](G)[sp].[moe](G)}$$$$ (last 3' nucleoside missing) | 5.75 score 0-7
16 | RNA1{[moe](G)[sp].[moe](G)p.[moe](T)p.[moe]([m5C])p.[moe](A)p.d([m5C])[sp].d(T)[sp].d(T)[sp].d(T)[sp].d(T)[sp].d(A)[sp].d(A)[sp].d(T)[sp].d(G)[sp].d(G)[sp].[moe](G)p.[moe](A)p.[moe](A)[sp].[moe]([m5C])}$$$$ (last 3' nucleoside missing) | 4.75 score 0-7
17 | RNA1{[moe](G)[sp].[moe]([m5C])p.[moe]([m5C])p.[moe](A)p.[moe]([m5C])p.d(A)[sp].d(G)[sp].d(A)[sp].d([m5C])[sp].d(T)[sp].d([m5C])[sp].d(A)[sp].d(A)[sp].d(T)[sp].d(T)[sp].[moe](G)p.[moe](T)p.[moe](A)[sp].[moe](A)}$$$$ (last 3' nucleoside missing) | 1 score 0-7
18 | RNA1{[moe]([m5C])[sp].[moe]([m5C])p.[moe](G)p.[moe](T)p.[moe](G)p.d(T)[sp].d(T)[sp].d(G)[sp].d(T)[sp].d(T)[sp].d(T)[sp].d([m5C])[sp].d([m5C])[sp].d([m5C])[sp].d([m5C])[sp].[moe](G)p.[moe](A)p.[moe](A)[sp].[moe](A)}$$$$ (last 3' nucleoside missing) | 1 score 0-7
19 | RNA1{[moe](G)[sp].[moe](T)p.[moe](T)p.[moe](T)p.[moe](A)p.d(T)[sp].d([m5C])[sp].d(T)[sp].d(G)[sp].d(A)[sp].d(A)[sp].d(T)[sp].d(T)[sp].d([m5C])[sp].d(G)[sp].[moe]([m5C])p.[moe]([m5C])p.[moe](A)[sp].[moe](T)}$$$$ (last 3' nucleoside missing) | 5.25 score 0-7
20 | RNA1{[moe](G)[sp].[moe](A)p.[moe]([m5C])p.[moe]([m5C])p.[moe]([m5C])p.d([m5C])[sp].d(T)[sp].d([m5C])[sp].d(T)[sp].d(T)[sp].d(A)[sp].d(T)[sp].d(T)[sp].d(A)[sp].d(A)[sp].[moe]([m5C])p.[moe]([m5C])p.[moe](T)[sp].[moe](G)}$$$$ (last 3' nucleoside missing) | 4 score 0-7
21 | RNA1{[moe](G)[sp].[moe](G)p.[moe]([m5C])p.[moe](A)p.[moe](T)p.d(T)[sp].d([m5C])[sp].d(T)[sp].d(A)[sp].d([m5C])[sp].d([m5C])[sp].d([m5C])[sp].d(T)[sp].d(A)[sp].d([m5C])[sp].[moe]([m5C])p.[moe]([m5C])p.[moe]([m5C])[sp].[moe](T)}$$$$ (last 3' nucleoside missing) | 1 score 0-7
22 | RNA1{[moe](G)[sp].[moe](A)p.[moe](G)p.[moe]([m5C])p.[moe](T)p.d(A)[sp].d(G)[sp].d(T)[sp].d(T)[sp].d(T)[sp].d([m5C])[sp].d(T)[sp].d(A)[sp].d(T)[sp].d(T)[sp].[moe](T)p.[moe](G)p.[moe]([m5C])[sp].[moe]([m5C])}$$$$ (last 3' nucleoside missing) | 0 score 0-7
23 | RNA1{[moe](G)[sp].[moe](G)p.[moe](T)p.[moe](T)p.[moe](A)p.d([m5C])[sp].d(A)[sp].d(A)[sp].d(A)[sp].d(A)[sp].d(T)[sp].d(A)[sp].d(A)[sp].d([m5C])[sp].d(G)[sp].[moe](A)p.[moe](G)p.[moe](G)[sp].[moe](G)}$$$$ (last 3' nucleoside missing) | 3 score 0-7
24 | RNA1{[moe](T)[sp].[moe](G)p.[moe](T)p.[moe](T)p.[moe](T)p.d(A)[sp].d(T)[sp].d([m5C])[sp].d(T)[sp].d(G)[sp].d(A)[sp].d(A)[sp].d(T)[sp].d(T)[sp].d([m5C])[sp].[moe](G)p.[moe]([m5C])p.[moe]([m5C])[sp].[moe](A)}$$$$ (last 3' nucleoside missing) | 3 score 0-7
25 | RNA1{[moe](G)[sp].[moe](T)p.[moe](A)p.[moe](T)p.[moe](A)p.d([m5C])[sp].d([m5C])[sp].d(A)[sp].d(A)[sp].d([m5C])[sp].d(T)[sp].d(T)[sp].d([m5C])[sp].d(A)[sp].d([m5C])[sp].[moe]([m5C])p.[moe](A)p.[moe](T)[sp].[moe]([m5C])}$$$$ (last 3' nucleoside missing) | 1 score 0-7
26 | RNA1{[moe](G)[sp].[moe](T)p.[moe]([m5C])p.[moe](A)p.[moe](G)p.d(G)[sp].d(T)[sp].d(T)[sp].d(A)[sp].d(A)[sp].d([m5C])[sp].d([m5C])[sp].d(A)[sp].d(T)[sp].d(T)[sp].[moe](A)p.[moe]([m5C])p.[moe]([m5C])[sp].[moe](A)}$$$$ (last 3' nucleoside missing) | 2.5 score 0-7
